Results as given in ChEMBL document CHEMBL1129146, “Pentamidine congeners. 4. DNA binding affinity and anti-Pneumocystis carinii activity of butamidine analogues” (1996).

Assays:
Pneumocystis carinii = assay: Compound was tested for anti-P. carinii activity in vitro.; format: functional
Nucleic Acid = assay: Delta Tm (thermal denaturation) in sonicated calf thymus DNA; format: nucleic-acid assay; parameters: unit not given here; conditions: Bos taurus
[1] = Delta Tm (thermal denaturation) in sonicated poly(dA).poly(dT) homopolymer

SMILES | Activity (Pneumocystis carinii) [µM] | ΔTm (Nucleic Acid) | ΔTm [1]
N=C(N)c1ccc(OC/C=C\COc2ccc(C(=N)N)cc2)cc1 | 9 | 11 | 31.5
N=C(N)c1ccc(OCCCCCOc2ccc(C(=N)N)cc2)cc1 [PENTAMIDINE] | 27 | 10 | 22.9
C(=C/COc1ccc(C2=NCCN2)cc1)/COc1ccc(C2=NCCN2)cc1 | 25 | 9.3 | 28.9
N=C(N)c1ccc(OCCCCOc2ccc(C(=N)N)cc2)cc1 | 39 | 8.3 | 20.4
N=C(N)c1ccc(OC[C@@H](O)[C@@H](O)COc2ccc(C(=N)N)cc2)cc1 | 78 |  | 
COc1cc(Cc2cnc(N)nc2N)cc(OC)c1OC.Cc1cc(NS(=O)(=O)c2ccc(N)cc2)no1 [CO-TRIMOXAZOLE] | 17 |  | 
C(=C\COc1ccc(C2=NCCN2)cc1)/COc1ccc(C2=NCCN2)cc1 | 42 | 7.9 | 20.8
N=C(N)c1ccc(OC/C=C/COc2ccc(C(=N)N)cc2)cc1 | 19 | 7.7 | 23.3
